Results taken from US20070155771A1, “Methods and means for treating protein conformational disorders” (priority 2003, published 2007).

Tests used:
[1] = system: COS-7 cells expressing EGFP fused to 19 alanines (A19); test: Aggregate formation and abnormal cell nuclei in transiently transfected COS-7 cells expressing A19; format: cell-based, African green monkey; details: immunofluorescence; 48 hours after transfection; drug 15 hours
Text: (§1) Mammalian expression vectors comprising EGFP (pEGFP-C1, Clontech) fused at its C-terminus with a Huntington's Disease gene exon 1 fragment with 74 polyglutamine repeats (Q74) or a polyalanine stretch of 19 repeats (A19) were used (Rankin, J. et al (2000) Biochem. J., 348, 15-19; Narain, Y. et al (1999) J. Med. Genet., 36, 739-746.). A Haemagglutinin-tagged Huntington's Disease gene exon 1 fragment with 74 polyglutamine repeats in pHM6 vector (Q74-HA) was also used. The PC12 stable lines expressing exon 1 of Huntington gene were as described in Wyttenbach A. et al., (2001) Hum. Mol. Genet. 10 1829-45.
(§2) African green monkey kidney cells (COS-7) were grown in Dulbecco's Modified Eagle Medium (DMEM, Sigma) supplemented with 10% Fetal Bovine Serum (FBS), 100 U/ml Penicillin/Streptomycin, 2 mM L-Glutamine and 1 mM Sodium Pyruvate at 37° C., 5% Carbon dioxide. The cells were grown on coverslips in six-well plates for immunofluorescence analysis, or were directly grown in six-well plates to 60-80% confluency for 24 hours for western blot analysis. Transfection was done using LipofectAMINE reagent (Invitrogen) using the manufacturer's protocol. The transfection mixture was replaced by normal culture medium after 5 hours incubation at 37° C. and the transfected cells were analysed by immunofluorescence or immunoblot 48 hours after transfection. The cells were left untreated or treated with 10 mM 3-methyl adenine (3-MA, Sigma), 0.5 mM N^6, N^6, Dimethyl adenosine (DMA, Sigma), 0.2 μg/ml Rapamycin (Sigma), 200 nM Bafilomycin A1 (BafA1, Sigma), 10 μM Lactacystin (Sigma) or 10 μM epoxomicin (Affinity research products ltd.) for 15 hours before fixation for immunofluorescence or processing for western blots. DMA, BafA1, epoxomicin and rapamycin were dissolved in DMSO and 3-MA and lactacystin were in water. Equal amounts of water or DMSO were added to the untreated controls, where relevant. The cells on coverslips were rinsed with 1×PBS, fixed with 4% paraformaldehyde in 1×PBS for 20 min and mounted in antifadent supplemented with 4′,6-diamidino-2-phenylindole (DAPI, 3 μg/ml, Sigma) to allow visualisation of nuclear morphology. The PC12 stable cells were maintained at 75 μg/ml hygromycin in standard medium consisting of high glucose DMEM (Sigma) with 100 U/ml penicillin/streptomycin, 2 mM L-glutamine (Invitrogen), 10% heat-inactivated horse serum (Invitrogen), 5% Tet-approved fetal bovine serum (FBS) (Clontech) and 100 μg/ml G418 (Invitrogen) at 37° C., 10% CO2. The cells were seeded at 1-2×10^5 per well in 6-well plates and were induced with 1 μg/ml doxycycline (Sigma) for 8 hours. The expression of transgenes was switched off by removing doxycycline from the medium. Cells were either left untreated or treated with 3-MA, BafA1, epoxomicin, lactacystin, rapamycin, 10 μg/ml cycloheximide (Sigma) or cycloheximide+rapamycin at the concentrations specified above for 24, 48 or 72 hours and the medium with the inhibitors/activator changed every 24 hours. The cells were then scraped off from the wells into 1.5 ml eppendorf tubes, pelleted at 8000 rpm and washed twice with 1×PBS. They were either fixed with 4% paraformaldehyde for 20 minutes and mounted in DAPI over coverslips on glass slides or processed for western blot analysis. CCI-779 was supplied by Wyeth Pharmaceuticals (Philadelphia). For tissue culture experiments, a stock solution of 1M in ethanol was prepared the day of experiment and was diluted in the appropriate medium
(§3) The pellets for westerns from COS-7 or PC12 cells were lysed on ice in Laemmli buffer (62.5 mM Tris-HCl pH6.8, 5% β-mercaptoethanol, 10% glycerol, and 0.01% bromophenol blue) for 30 min in the presence of protease inhibitors (Roche Diagnostics). The lysates were subjected to SDS-PAGE (10%) electrophoresis and proteins transferred onto nitrocellulose membrane (Amersham Pharmacia Biotech). […]

[2] = system: COS-7 cells expressing an exon 1 fragment of the HD gene with 74 glutamines (Q74); test: Aggregate formation and abnormal cell nuclei in transiently transfected COS-7 cells expressing Q74; format: cell-based, African green monkey; details: 48 hours after transfection
Text: as §1, §2, §3

[3] = system: human wild-type, A30P and A53T α-synuclein; test: α-Synuclein degradation in inducible PC12 cell lines (western blot), all forms; format: cell-based
Text: Human α-synuclein with a HA tag at the N-terminus and a 6His tag at the C-terminus was amplified from pHM6α-synuclein constructs (Furlong, R. A. et a; 1 (2000) Biochem. J. 346, 577581) and inserted into pTRE2 hyg vector (Clontech) using Nhe I/Sal I sites. Constructs were confirmed by sequencing before use. The pTRE2 hygα-synuclein construct and pTettTS (Clontech) were cotransfected into PC12 TetOn cells (Clontech), using Lipofectamine (Invitrogen) and Plus Reagent (Invitrogen). Single colonies were isolated using cloning cylinders (Sigma) and cells were grown and tested for α-synuclein expression upon induction. Cell lines were subjected to a further round of purification from single colonies to ensure that lines were pure.
PC12 cells were grown in Dulbecco's modified eagle's medium (DMEM, Sigma) supplemented with 10% horse serum (Sigma), 5% fetal bovine serum (Sigma), 100 U/ml penicillin/streptomycin, 2 mM L-glutamine, […] G418 (Invitrogen) and […] hygromycin B (Calbiochem) at 37° C., 10% CO2. To induce differentiation, cells were grown in media containing 1% horse serum and 100 ng/ml nerve growth factor (2.5S, Upstate Biotechnology) and incubated for about 5 days. Cells were induced to express synuclein with […] doxycycline (Sigma).
Cells were induced for 24 hours and then washed twice with media to remove doxycycline. Then cells were incubated in […] media containing either 10 mM 3-methyladenine (3MA, Sigma), 200 nM bafilomycin A1 (Sigma), […] rapamycin (Sigma), […] lactacystin (Sigma), […] epoxomicin (Affinity Research Products Ltd) or carrier controls (water or DMSO (Sigma)). 3MA and lactacystin were made up in water and rapamycin, epoxomicin and bafilomycin were dissolved in DMSO.
After 24 hours the media was replaced with fresh media plus drug and after a further 24 hours cell pellets were collected and stored at −80° C. until required.
Cell pellets were collected and stored at −80° C. until needed. Cells were lysed on ice in lysis buffer: 1% TritonX100, 20 mM TRIS pH7.5, 137 mM NaCl, 1 mM EGTA, 10% glycerol, 1.5 mM MgCl2 and protease inhibitor cocktail (Complete, Roche).
Samples were then mixed with loading buffer: 62.5 mM TRIS pH 6.8, 2% SDS, 10% glycerol, 0.05% bromophenol blue, 100 mM dithiothreitol and 700 mM β-mercaptoethanol and boiled before loading onto 14% denaturing polyacrylamide gels.
Each lane was loaded with protein from a similar number of cells, based on cell counting at the time of seeding. Proteins were transferred onto Hybond ECL nitrocellulose membrane (Amersham). α-Synuclein was detected with an antiHA monoclonal antibody (Covance) at 1:1000 dilution with 4-18 hours incubation. HRP conjugated antimouse antibody (Amersham) at 1:2000 dilution was then added to blots and antibody was detected using ECL blotting reagents (Amersham) and Hyperfilm ECL (Amersham). Blots were stripped and then reprobed for α-tubulin (Sigma) at 1:1000 dilution.
PC12 cell lines as described above (i.e. mitotic and neuronally differentiated wild-type, A53T and A30P PC12 lines) were induced for 24 hours, then doxycycline was removed and the drugs were added for 48 hours. The trends we observed were similar in cells treated with drugs for 24 and 72 hours.

[4] = system: PC12 cell line expressing EGFP-tagged HD exon 1 with Q74; test: Turnover of Q74 protein and aggregates in stable doxycycline-inducible PC12 cells after switching expression off; format: cell-based, rat
Description: as §2
The pellets for westerns from COS-7 or PC12 cells were lysed on ice in Laemmli buffer (62.5 mM Tris-HCl pH6.8, 5% β-mercaptoethanol, 10% glycerol, and 0.01% bromophenol blue) for 30 min in the presence of protease inhibitors (Roche Diagnostics). The lysates were subjected to SDS-PAGE (10%) electrophoresis and proteins transferred onto nitrocellulose membrane (Amersham Pharmacia Biotech). The primary antibodies used include mouse monoclonal anti-GFP antibody (8362-1, Clontech) at 1:2000, rabbit monoclonal anti-actin antibody (A2066, Sigma) at 1:3000, mouse monoclonal anti-tubulin antibody (Clone DM 1A, Sigma) at 1:1000 and mouse monoclonal anti-HA antibody (Covance) at 1:1000. Blots were probed with Horse Radish Peroxidase (HRP) conjugated anti-mouse or anti-rabbit IgG (Bio Rad) at 1:2000. Bands were visualised using the ECL detection reagent (Amersham). […]

Question: `CN(C)c1ncnc2c1ncn2[C@@H]1O[C@H](CO)[C@@H](O)[C@H]1O` [DMA, N^6,N^6-dimethyladenosine] was tested. Which “appearance (size, number) of A19 aggregates in cells with aggregates” value [1] did it give?
Answer: Identical aggregate phenotypes

Question: What about the “appearance (size, number) of Q74 aggregates in cells with aggregates” value ([2]; immunofluorescence, drug 15 hours) of the same molecule?
Answer: Identical aggregate phenotypes

Question: With `CC(=O)N[C@@H](CSC(=O)[C@]1([C@@H](O)C(C)C)NC(=O)[C@H](C)[C@@H]1O)C(=O)O` [lactacystin] as the molecule, how does the “proportions of Q74-expressing cells with aggregates” value ([2]; drug for 15 hours before fixing: 10 mM 3-MA, 0.5 mM DMA, 200 nM BafA1, 0.2 μg/ml rapamycin, 10 μM epoxomicin, 10 μM lactacystin, vs untreated) read?
Answer: increases

Question: What about the “cell death or overt aggregate formation” value [3] of the same molecule?
Answer: did not cause increased cell death or overt aggregate formation

Question: What about the α-synuclein levels ([3]; induced 24 hours, doxycycline removed, drug 48 hours, cycling and differentiated cells, 0.2 mg/ml rapamycin, 10 mM lactacystin, 10 mM epoxomicin [sic]) of the same molecule?
Answer: increase

Question: What about the “number of aggregate-containing cells” value ([4]; 8 h ON then 48 h OFF with 10 μM epoxomicin or 10 μM lactacystin, vs control) of the same molecule?
Answer: increased Q74 aggregation

Question: Which results are given for `C[C@@H]1C[C@@H]([C@H](O)CC2CC(=O)NC(=O)C2)C(=O)[C@@H](C)C1` [cycloheximide]?
Answer: cell fluorescence (EGFP-Q74 clearance) ([4]; 8 h ON then 72 h OFF with drug, 0.2 μg/ml rapamycin, 10 μg/ml cycloheximide): increased; numbers of aggregate containing cells / visible aggregates ([4]; 8 h ON then 72 h OFF with drug, vs time-matched control): increased
